# Reference: patent US12569467B2, “Small molecules that treat or prevent viral infections” (priority 2022, dated 2026)
# What was measured:
# [1] = target: SARS-CoV2 spike protein (Severe acute respiratory syndrome coronavirus 2, UniProt P0DTC2); type: binding
# [2] = tested on: HEK293 cells; conditions: PrestoBlue, various concentrations, within the indicated concentrations (FIG. 3E)
smiles,measurement,setting,value
"O=C1Nc2ccccc2/C1=C\c1ccc(-c2cc(C(F)(F)F)cc(C(F)(F)F)c2)o1 [CD04872SC, 3-({5-[3,5-di(trifluoromethyl)phenyl]-2-furyl}methylidene)indolin-2-one]",difference of thermal stability (Tm) in presence versus absence of compound,[1],about 3 Celsius degrees
same,cell cytotoxicity,[2],without major cell cytotoxicity
